Assay [1] relates to Eschericia coli (E. coli) strain ATCC25922. Kind of assay: Standard microdilution assay, MIC against E. coli ATCC25922. The note with it: Escherichia coli; E. coli strain ATCC25922, standard microdilution assay; cutoff 16 micrograms/mL; read-out: MIC E. Coli. The format is cell-based. The essentials:
(§1)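 Scoring as + or − used a 16 micrograms/mL cutoff on minimum inhibitory concentrations. These came from CLSI-standard microdilution, quality-controlled with reference strains tested in the same run.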
A general note: Broth dilution looks for growth in wells or tubes with falling amounts of substance.

For assay [2], the system named is Staphylococcus aureus (S. aureus) 11540 strain. Kind of assay: Standard microdilution assay, MIC against S. aureus 11540. The format is cell-based. The note with it: S. aureus 11540 strain, standard microdilution assay, cutoff 16 micrograms/mL, read-out: MIC S. aureus. An outline of the steps:
as §1

Where only a bound is given, the exact number is not on record here.

For orientation: MIC means the least concentration at which growth counts as inhibited. As to `C[C@H](N)CCCc1cc(Cl)c(F)c(-c2cc3cn(-c4ccc([C@H]5CC[C@H](CCNC(=N)N)N5)cc4)c(=O)nc3[nH]2)c1` [Compound 349], the MIC in assay [1] and in assay [2] was less than 16 µg/mL each time.

In the case of `C[C@H](N)CCCc1cc(OC(F)(F)F)c(F)c(-c2cc3cn(-c4ccc([C@H](C)NCC[C@@H](Cn5cc(CN)nn5)NC(=N)N)cc4)c(=O)nc3[nH]2)c1` [Compound 327], the MIC in assay [1] and in assay [2] was less than 16 µg/mL in each case.

Consider `C[C@H](N)CCCc1cc(Cl)c(F)c(-c2cc3cn(-c4ccc([C@H]5CCO[C@H](CNC(=N)N)C5)cc4)c(=O)nc3[nH]2)c1` [Compound 561], for which the MIC in assay [1] and in assay [2] was less than 16 µg/mL in each case.

For the molecule `C[C@H](N)CCCc1cc(Cl)c(F)c(-c2cc3cn(-c4ccc([C@@H]5CCC[C@@H](CCCNC(=N)N)N5)cc4)c(=O)nc3[nH]2)c1` [Compound 556], the MIC in assay [1] and in assay [2] was less than 16 µg/mL throughout.

On to `C[C@H](N)CCCc1cc(Cl)c(F)c(-c2cc3cn(-c4ccc(CN5CC[C@H](CN6CCOCC6)NC5=N)cc4)c(=O)nc3[nH]2)c1` [Compound 418], for which the minimum inhibitory concentration (MIC) in assay [1] and in assay [2] was less than 16 µg/mL each time.

Turning to `C[C@H](N)CCCc1cc(Cl)c(F)c(-c2cc3cn(-c4ccc(CN[C@H](C)C[C@H](CN)NC(=N)N)cc4)c(=O)nc3[nH]2)c1` [Compound 397], the MIC in assay [1] and in assay [2] was less than 16 µg/mL throughout.

With `C[C@@H](CNC(=N)N)CN1CC[C@@H](c2cc3cn(-c4ccc([C@H](C)NCCCNC(=N)N)cc4)c(=O)nc3[nH]2)C1` [Compound 576], the MIC in assay [1] and in assay [2] was less than 16 µg/mL throughout.

For `Cc1noc(C[C@@H]2CCC[C@@H](c3ccc(-n4cc5cc(-c6cc(CCC[C@H](C)N)cc(Cl)c6F)[nH]c5nc4=O)cc3)N2)n1` [Compound 497], the figures for the minimum inhibitory concentration (MIC) in assay [1] and in assay [2] were more than 16 µg/mL and less than 16 µg/mL, respectively.

As to `C[C@H](N)CCCc1cc(Cl)c(F)c(-c2cc3cn(-c4ccc([C@H]5COC[C@@H](c6c[nH]nn6)N5)cc4)c(=O)nc3[nH]2)c1` [Compound 391], the MIC in assay [1] and in assay [2] was more than 16 µg/mL each time.

As to `C[C@@H](CN)CN1CC[C@@H](c2cc3cn(-c4ccc(C(=N)NCC[C@H](C)N)cc4)c(=O)nc3[nH]2)C1` [Compound 581], the MIC in assay [1] and in assay [2] was less than 16 µg/mL each time.

For `COC[C@@H](CCN[C@@H](C)c1ccc(-n2cc3cc(-c4cc(CCC[C@H](C)N)cc(OC(F)(F)F)c4F)[nH]c3nc2=O)cc1)NC(=N)N` [Compound 329], the MIC in assay [1] and in assay [2] was less than 16 µg/mL each time.

For `CNC(=O)CC[C@@H]1CCC[C@@H](c2ccc(-n3cc4cc(-c5cc(CCC[C@H](C)N)cc(Cl)c5F)[nH]c4nc3=O)cc2)N1` [Compound 513], the MIC in assay [1] and in assay [2] was more than 16 µg/mL throughout.

In the case of `C[C@H](N)CCCc1cc(Cl)c(F)c(-c2cc3cn(-c4ccc([C@@H]5CCC[C@@H](CCn6ccnn6)N5)cc4)c(=O)nc3[nH]2)c1` [Compound 478], the MIC in assay [1] and in assay [2] was more than 16 µg/mL each time.

For `C[C@H](N)CCCc1cc(Cl)c(F)c(-c2cc3cn(-c4ccc([C@@H]5COC[C@@H](CO)N5)cc4)c(=O)nc3[nH]2)c1` [Compound 452], the MIC in assay [1] and in assay [2] was more than 16 µg/mL in each case.

Regarding `C[C@H](N)CCCc1cc(Cl)c(F)c(-c2cc3cn(-c4ccc(CN[C@H](CCN)CNc5ncc[nH]5)cc4)c(=O)nc3[nH]2)c1` [Compound 537], the MIC in assay [1] and in assay [2] was less than 16 µg/mL in each case.

`C[C@@H](CN)CN1CC[C@@H](c2cc3cn(-c4ccc(C(=N)NC5CCCC5)cc4)c(=O)nc3[nH]2)C1` [Compound 580]: the minimum inhibitory concentration (MIC) in assay [1] and in assay [2] was more than 16 µg/mL throughout.

For `C[C@H](N)CCCc1cc(Cl)c(F)c(-c2cc3cn(-c4ccc(C(O)[C@@H]5C[C@@H](NC(=N)N)CN5)cc4)c(=O)nc3[nH]2)c1` (some centres unmarked) [Compound 447], the MIC in assay [1] and in assay [2] was less than 16 µg/mL throughout.

As to `C[C@@H](CN)CN1CC[C@@H](c2cc3cn(-c4ccc([C@H](C)NCCCNC(=N)N)cc4)c(=O)nc3[nH]2)C1` [Compound 575], the MIC in assay [1] and in assay [2] was less than 16 µg/mL in each case.

For `C[C@H](N)CCCc1cc(Cl)c(F)c(-c2cc3cn(-c4ccc([C@@H]5CCC[C@@H](Cn6cn[nH]c6=O)N5)cc4)c(=O)nc3[nH]2)c1` [Compound 539], the MIC in assay [1] and in assay [2] was more than 16 µg/mL each time.

Regarding `C=C[C@@H](CCNC(=N)N)NCc1ccc(-n2cc3cc(-c4cc(CCC[C@H](C)N)cc(Cl)c4F)[nH]c3nc2=O)cc1` [Compound 387], the MIC in assay [1] and in assay [2] was less than 16 µg/mL throughout.

Regarding `C[C@H](N)CCCc1cc(Cl)c(F)c(-c2cc3cn(-c4ccc(CN5CC[C@H](CN)NC5=N)cc4)c(=O)nc3[nH]2)c1` [Compound 417], the minimal inhibitory concentration (MIC) in assay [1] and in assay [2] was less than 16 µg/mL in each case.

As for `COC[C@@H](CCN[C@@H](C)c1ccc(-n2cc3cc(-c4cc(CCC[C@H](C)N)cc(Cl)c4F)[nH]c3nc2=O)cc1)NC(=N)N` [Compound 330], the MIC in assay [1] and in assay [2] was less than 16 µg/mL in each case.

Regarding `C[C@H](N)CCCc1cc(OC(F)(F)F)c(F)c(-c2cc3cn(-c4ccc([C@H](C)NCC[C@@H](CCN)NC(=N)N)cc4)c(=O)nc3[nH]2)c1` [Compound 335], the MIC in assay [1] and in assay [2] was less than 16 µg/mL throughout.

As to `C[C@H](N)CCCc1cc(OC(F)(F)F)c(F)c(-c2cc3cn(-c4ccc([C@H](C)NCC[C@H](CC(N)=O)NC(=N)N)cc4)c(=O)nc3[nH]2)c1` [Compound 344], the MIC in assay [1] and in assay [2] was less than 16 µg/mL throughout.

Consider `C[C@H](N)CCCc1cc(Cl)c(F)c(-c2cc3cn(-c4ccc([C@@H]5COC[C@@H](CCNC(=N)N)N5)cc4)c(=O)nc3[nH]2)c1` [Compound 353], for which the MIC in assay [1] and in assay [2] was less than 16 µg/mL in each case.

For the molecule `C=C[C@H](CCNC(=N)N)N[C@@H](C)c1ccc(-n2cc3cc(-c4cc(CCC[C@H](C)N)cc(Cl)c4F)[nH]c3nc2=O)cc1` [Compound 382], the MIC in assay [1] and in assay [2] was less than 16 µg/mL each time.

Take `C[C@H](N)CCCc1cc(Cl)c(F)c(-c2cc3cn(-c4ccc([C@H]5CCO[C@H](CCN)C5)cc4)c(=O)nc3[nH]2)c1` [Compound 554]: the MIC in assay [1] and in assay [2] was less than 16 µg/mL throughout.

For `C[C@H](N)CCCc1cc(-c2cc3cn(-c4ccc([C@@H]5CCC[C@@H](CCN)N5)cc4)c(=O)nc3[nH]2)cc(C(F)(F)F)c1` [Compound 485], the MIC in assay [1] and in assay [2] was less than 16 µg/mL throughout.

Take `C[C@H](N)CCCc1cc(Cl)c(F)c(-c2cc3cn(-c4ccc([C@H](C)N5CC[C@@H](NC(=N)N)C5)cc4)c(=O)nc3[nH]2)c1` [Compound 431]: the MIC in assay [1] and in assay [2] was less than 16 µg/mL in each case.

Turning to `C[C@H](NCCCNC(=N)N)c1ccc(-n2cc3cc(-c4cc([C@@H]5CC[C@H](CN)O5)cc(Cl)c4F)[nH]c3nc2=O)cc1` [Compound 446], the minimum inhibitory concentration (MIC) in assay [1] and in assay [2] was less than 16 µg/mL each time.

In the case of `C[C@H](N)CCCc1cc(OC(F)(F)F)c(F)c(-c2cc3cn(-c4ccc([C@@H](N)CCNC(=N)N)cc4)c(=O)nc3[nH]2)c1` [Compound 428], the MIC in assay [1] and in assay [2] was less than 16 µg/mL throughout.

`C[C@H](N)CCCc1cc(Cl)c(F)c(-c2cc3cn(-c4ccc([C@@H]5CCC[C@@H](CCNc6ncc[nH]6)N5)cc4)c(=O)nc3[nH]2)c1` [Compound 552]: the MIC in assay [1] and in assay [2] was less than 16 µg/mL throughout.

Regarding `C[C@H](N)CCCc1cc(Cl)c(F)c(-c2cc3cn(-c4ccc(C(=O)NCCCN)cc4)c(=O)nc3[nH]2)c1` [Compound 475], the minimum inhibitory concentration (MIC) in assay [1] and in assay [2] was less than 16 µg/mL throughout.

For `C[C@H](N)CCCc1cc(Cl)c(F)c(-c2cc3cn(-c4ccc([C@H](C)NCC[C@H](N)CNC(=O)CN)cc4)c(=O)nc3[nH]2)c1` [Compound 424], the MIC in assay [1] and in assay [2] was less than 16 µg/mL in each case.

In the case of `N=C(N)N[C@H](CN)CCNCc1ccc(-n2cc3cc(-c4cc(CCC[C@@H](N)CO)cc(Cl)c4F)[nH]c3nc2=O)cc1` [Compound 393], the MIC in assay [1] and in assay [2] was less than 16 µg/mL each time.

Take `C[C@H](N)CCCc1cc(Cl)c(F)c(-c2cc3cn(-c4ccc([C@@H]5CCC[C@@H](CCNC(=N)N)N5C)cc4)c(=O)nc3[nH]2)c1` [Compound 527]: the MIC in assay [1] and in assay [2] was less than 16 µg/mL throughout.

For the molecule `C[C@H](NCCCN)c1ccc(-n2cc3cc(-c4cc(CCC[C@H](C)NC(=N)N)cc(Cl)c4F)[nH]c3nc2=O)cc1` [Compound 324], the MIC in assay [1] and in assay [2] was less than 16 µg/mL each time.

As for `C[C@H](N)CCCc1cc(Cl)c(F)c(-c2cc3cn(-c4ccc([C@H](C)NCC[C@H](CN5CCOCC5)NC(=N)N)cc4)c(=O)nc3[nH]2)c1` [Compound 334], the MIC in assay [1] and in assay [2] was less than 16 µg/mL each time.

In the case of `C[C@H](N)CCCc1cc(OC(F)(F)F)c(F)c(-c2cc3cn(-c4ccc([C@H](C)NCC[C@H](CNC(=O)CN)NC(=N)N)cc4)c(=O)nc3[nH]2)c1` [Compound 369], the minimal inhibitory concentration (MIC) in assay [1] and in assay [2] was less than 16 µg/mL each time.

For the molecule `C[C@H](N)CCCc1cc(Cl)c(F)c(-c2cc3cn(-c4ccc(CO[C@H](CCNC(=N)N)CNc5nccs5)cc4)c(=O)nc3[nH]2)c1` [Compound 534], the MIC in assay [1] and in assay [2] was less than 16 µg/mL throughout.

With `C[C@H](N)CCCc1cc(OC(F)(F)F)c(F)c(-c2cc3cn(-c4ccc(CN[C@@H](C)C[C@H](CCO)NC(=N)N)cc4)c(=O)nc3[nH]2)c1` [Compound 361], the minimal inhibitory concentration (MIC) in assay [1] and in assay [2] was less than 16 µg/mL each time.

`COC[C@H](CCN[C@@H](C)c1ccc(-n2cc3cc(-c4cc(CCC[C@H](C)N)cc(OC(F)(F)F)c4F)[nH]c3nc2=O)cc1)NC(=N)N` [Compound 346]: the MIC in assay [1] and in assay [2] was less than 16 µg/mL throughout.

For the molecule `C[C@H](N)CCCc1cc(OC(F)(F)F)c(F)c(-c2cc3cn(-c4ccc([C@@H](C)NCCCN)cc4)c(=O)nc3[nH]2)c1` [Compound 320], the MIC in assay [1] and in assay [2] was less than 16 µg/mL each time.
